Results reported in US20180221306A1, “PHARMACEUTICAL COMPOSITIONS OF 5-HYDROXY-2-METHYLNAPHTHALENE-1,4-DIONE” (PellFiCure Pharmaceuticals, Inc., priority 2016, published 2018).

Legend:
[1] = tested on: PTEN-P2/H2B-GFP mouse prostate cancer cells; assay: IVM pseudo-orthotopic prostate chamber model, tumor size
Method: Male Nude mice (25-35 g body weight) are anesthetized (7.3 mg ketamine hydrochloride and 2.3 mg xylazine/100 g body weight, i.p.) and placed on a heating pad. Two symmetrical titanium frames are implanted into a dorsal skinfold, so as to sandwich the extended double layer of skin. A 15 mm full thickness circular layer is excised. The underlying muscle (M. cutaneous max.) and subcutaneous tissues are covered with a glass coverslip incorporated in one of the frames. After a recovery period of 2-3 days, prostate tissue and cancer cell spheroids are carefully placed in the chamber. Small circular Band Aids are applied on the backside of the chamber after surgery to prevent scratching. Before surgery, Buprenorphine (0.1 mg/kg) is given IP. After surgery Meloxicam is given in the drinking water for 4 days Meloxicam (5.0 mg/ml), is added at 35 μl per 100 ml of water to be medicated.
Mice are anesthetized with 7.3 mg ketamine hydrochloride and 2.3 mg xylazine/100 g body weight, i.p. A lateral incision across the scrotum is made and the testes are individually ligated and excised. The wound is cauterized. The incision is then sutured and sealed with Nexaband® acrylic.
Preparation of tumor spheroids: Liquid overlay plates were generated using 1% molecular biology grade agarose melted in cell culture medium and plated in round bottom 96 well plates at 50 ul/well. Tumor cells grown as pre-confluent monolayers were trypsinized and diluted to a final volume of 1,000,000 cells/ml. Viability was determined by Trypan blue. Cells were placed onto the cooled agarose (70 μl/well) and allowed to compact into spheroids for 24 hours. The spheroids were picked with a pipette and transferred into serum-free media for implantation in the chambers.
IntraVital Microscopy (IVM) can be used to visualize tumors in animals and analyze various aspects of cancer physiology such as tumor vascularization, cell migration and metastasis. An advantage of IVM includes the real-time analysis of dynamic processes with single-cell resolution. IntraVital microscopy offers the possibility to follow tumor growth in a non-invasive, non-destructive manner. The application of IVM can be limited to animal models that bear visually accessible tumors. Therefore, the dorsal skinfold chamber model described above can be compatible with IVM. Using IVM can permit a number of parameters to be measured in living animals and as a function of time, including tumor growth, angiogenesis, infiltration by immune cells, tumor cell migration, mitosis (cell-division) and apoptosis (programmed cell death), all in the context of the host and in real time.
Unless otherwise indicated, Compound I was administered by oral gavage in a sesame oil (Carrier A) formulation. Compound I was dissolved in DMSO then in oil at a concentration of 0.25 mg/ml (weight/volume) with a final DMSO concentration of 0.5% (vol/vol), and administered to mice at 1 mg/kg. In some experiments, Compound I dissolved in a mixture of poly-ethylene glycol/DMSO 30% (w/v) was administered via intra-peritoneal injection.
The efficacy of the formulation of Compound I in Carrier A for oral administration was compared to the previous formulation of Compound I in poly-ethylene glycol (PEG) for intra-peritoneal injection (i.p.). These experiments were performed using Intra Vital Microscopy (IVM) in a pseudo-orthotopic prostate chamber model in which minced prostate tissue is grafted in chambers surgically placed in the dorsal skinfold of mice, and allowed to vascularize. Small tumor cells spheroids were then placed on the prostate tissue, creating a biologically relevant prostatic environment. The tumor cells that express fluorescent H2B-GFP and can be detected in situ and in real-time through the microscopy window of the dorsal chamber.
Epithelial cell lines derived from the prostate tumor of a PTEN-null mouse were used. Mouse prostate cancer cells PTEN-P2 are heterozygous for PTEN deletion and do express protein PTEN.

[2] = tested on: mice; settings: over a period of 14 days; cited from earlier work

For `CC1=CC(=O)c2c(O)cccc2C1=O` [Compound I, 5-hydroxy-2-methylnaphthalene-1,4-dione], the “Stability of formulations of Compound I in PEG” value (5 mg/g) was 50%, the “Stability of the formulation in Carrier A (sesame oil), Potency as Amount” value (3 day, 4.6 mg/mL) was 4200 µg/mL and the “Tumor regression at higher doses” value ([1]; 3 and 10 mg/kg/day in oil, oral, castrated mice) was “no improvement over the dose of 1 mg/kg/day”. The Combination efficacy ([1]; Compound I administered orally in combination with surgical castration) was “Yes”, the “Shrinkage of the tumors” value ([1]; Compound I in Carrier A orally 1 mg/kg/day with degarelix) was “approximately 50%” and the “Tumor size relative to the starting size” value ([1]; Compound I in Carrier A orally with abiraterone/prednisone) was “less than 60%”. For the same molecule, the “Effect on tumor size” value ([1]; Compound I in Carrier A orally with bicalutamide) was “did not result in a reduction of initial tumor size”, the “Shrinkage of the tumor size” value ([1]; Compound I in Carrier A orally with dutasteride) was “approximately 30%” and the “Effect on tumor size” value ([1]; Compound I in Carrier A orally with enzalutamide) was “did not result in a reduction in tumor size”. For the same molecule, the “Tumor size relative to the starting size” value ([1]; Compound I in Carrier A orally with orteronel) was “less than 60%”, the “Decrease of tumor sizes” value ([1]; Compound I in PEG, i.p. 1 mg/kg/day, castrated mice, p<0.001) was 50% and the “Effectiveness vs drug alone” value ([1]; combination of bicalutamide with Compound I) was “no more effective than treatment with the drug alone”. The “Effectiveness vs drug alone” value ([1]; combination of enzalutamide with Compound I) was “no more effective than treatment with the drug alone”, the “Effect on tumor size” value ([1]; combination of leuprolide and the oral formulation of Compound I) was “caused the tumors to shrink” and the “Tumor flare vs leuprolide alone” value ([1]; combination of the oral formulation of Compound I and leuprolide) was “shorter and of lesser amplitude”. The “Efficiency vs combination with surgical castration” value ([1]; combination with 2 mg/kg dutasteride) was “nearly as efficient as the combination of Compound I with surgical castration”, the “Efficiency vs chemical ADT by itself” value ([1]; combination with abiraterone/prednisone vs abiraterone/prednisone) was “more efficient” and the “Shrinkage vs comparator combination” value ([1]; combination with abiraterone/prednisone, comparator printed as combination of Compound I and abiraterone/prednisone) was “more shrinkage of tumors”. For the same molecule, the “Shrinkage vs combination of Compound I and castration” value ([1]; combination with degarelix) was “more shrinkage of tumors”, the “Efficiency vs chemical ADT by itself” value ([1]; combination with degarelix vs degarelix) was “more efficient” and the “Dose dependence of tumor regression” value ([1]; combination with dutasteride at 2, 0.3, 0.1, 0.03 mg/kg) was “tumor regression proportionally to the dose of dutasteride”. The “Efficiency vs chemical ADT by itself” value ([1]; combination with dutasteride vs dutasteride, p<0.001) was “more efficient”, the “Shrinkage vs combination of Compound I and castration” value ([1]; combination with orteronel) was “more shrinkage of tumor size” and the “Efficiency vs chemical ADT by itself” value ([1]; combination with orteronel vs orteronel) was “more efficient”. For the same molecule, the “Maximum tumor size reached, relative to initial tumor size” value ([1]; leuprolide plus Compound I orally 1 mg/kg/day, p=0.014 between treatments) was 120%, the “Tumor regression at lower doses” value ([1]; lower doses than 1 mg/kg/day (FIG. 3B), oral in Carrier A, castrated mice) was “less efficient at causing tumor regression” and the “Tolerability of oral administration” value ([1]; mice, up to 10 mg/kg/day for 21 days, no changes in whole body weights or animal behavior) was “well tolerated”. The “Dose of optimal effect” value ([1]; oil formulation, oral, castrated mice) was 1 mg/kg/day, the “Tumor regression, oral formulation versus i.p. formulation” value ([1]; oral 1 mg/kg/day in Carrier A, castrated mice) was “as effectively as i.p. injection of 1 mg/kg Compound I in PEG” and the “Dose at which Compound I was maximally effective” value ([1]; see Example 5) was 1 mg/kg. For the same molecule, the LD50 [2] was 8 mg/kg.
